Data reported in ChEMBL document CHEMBL5465560, “Selectivity Literature for EUbOPEN Chemogenomic Library” (2024).

Columns and labels:
[1] = biological target: Calcium/calmodulin-dependent protein kinase kinase 1 (Homo sapiens) (UniProt Q8N5S9); experiment: Selectivity interaction (KinomeScan (DiscoverX)) EUB0001079a CAMKK1; conditions: at 1 µM
[2] = biological target: T1, Calcium/calmodulin-dependent protein kinase type IV (Homo sapiens) (UniProt Q16566); experiment: Selectivity interaction (Kinase panel (DSF assay)) EUB0001558a CAMK4
T1 sequence (whole entry): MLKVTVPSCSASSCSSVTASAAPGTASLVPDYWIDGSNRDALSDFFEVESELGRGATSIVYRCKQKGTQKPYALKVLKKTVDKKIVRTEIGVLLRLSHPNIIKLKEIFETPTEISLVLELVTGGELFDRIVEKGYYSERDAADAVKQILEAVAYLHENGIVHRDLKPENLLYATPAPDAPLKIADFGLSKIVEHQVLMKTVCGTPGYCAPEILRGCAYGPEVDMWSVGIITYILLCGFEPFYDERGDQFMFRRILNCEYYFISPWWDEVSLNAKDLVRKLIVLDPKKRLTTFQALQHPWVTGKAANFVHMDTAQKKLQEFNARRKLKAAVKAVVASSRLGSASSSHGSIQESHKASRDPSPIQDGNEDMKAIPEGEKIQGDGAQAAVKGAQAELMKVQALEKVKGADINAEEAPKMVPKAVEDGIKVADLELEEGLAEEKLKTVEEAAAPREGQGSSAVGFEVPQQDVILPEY

[3] = biological target: Tyrosine-protein kinase JAK1 (Homo sapiens, UniProt P23458); experiment: Selectivity interaction (ActivX KiNativ screen (kinase selectivity in THP-1 cell lysates)) EUB0000639a JAK1; assay type: subcellular; conditions: lysate, at 1 µM
Tyrosine-protein kinase JAK1, sequence (P23458 whole entry): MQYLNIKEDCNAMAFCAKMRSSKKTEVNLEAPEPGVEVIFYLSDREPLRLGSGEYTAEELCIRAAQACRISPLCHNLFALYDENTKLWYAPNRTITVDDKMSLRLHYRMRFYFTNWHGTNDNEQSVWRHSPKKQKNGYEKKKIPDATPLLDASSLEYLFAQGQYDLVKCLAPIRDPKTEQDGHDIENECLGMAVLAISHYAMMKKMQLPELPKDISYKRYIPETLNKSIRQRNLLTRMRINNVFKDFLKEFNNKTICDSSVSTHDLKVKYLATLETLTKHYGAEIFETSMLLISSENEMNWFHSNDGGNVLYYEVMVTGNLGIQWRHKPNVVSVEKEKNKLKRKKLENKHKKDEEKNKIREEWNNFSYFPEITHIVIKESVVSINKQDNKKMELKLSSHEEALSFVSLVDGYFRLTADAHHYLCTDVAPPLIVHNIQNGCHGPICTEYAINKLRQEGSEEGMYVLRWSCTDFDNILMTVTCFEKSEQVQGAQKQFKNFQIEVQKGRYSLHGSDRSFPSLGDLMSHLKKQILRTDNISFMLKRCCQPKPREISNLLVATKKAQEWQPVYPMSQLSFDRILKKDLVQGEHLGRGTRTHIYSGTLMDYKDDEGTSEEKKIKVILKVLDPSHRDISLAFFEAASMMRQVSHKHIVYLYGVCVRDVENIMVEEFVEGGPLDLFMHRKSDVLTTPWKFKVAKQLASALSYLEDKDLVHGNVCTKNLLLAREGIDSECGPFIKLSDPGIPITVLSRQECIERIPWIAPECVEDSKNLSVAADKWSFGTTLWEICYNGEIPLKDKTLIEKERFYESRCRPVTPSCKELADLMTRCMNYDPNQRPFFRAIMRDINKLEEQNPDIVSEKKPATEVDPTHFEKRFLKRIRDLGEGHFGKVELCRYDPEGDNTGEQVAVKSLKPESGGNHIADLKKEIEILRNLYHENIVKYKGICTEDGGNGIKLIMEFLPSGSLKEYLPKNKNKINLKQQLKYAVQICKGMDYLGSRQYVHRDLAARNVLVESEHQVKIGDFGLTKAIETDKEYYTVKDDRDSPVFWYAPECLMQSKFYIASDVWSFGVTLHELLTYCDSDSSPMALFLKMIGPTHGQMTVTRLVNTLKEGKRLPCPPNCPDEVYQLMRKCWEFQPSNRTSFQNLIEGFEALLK

[4] = biological target: T2, Serine/threonine-protein kinase D2 (Homo sapiens) (UniProt Q9BZL6); conditions: at 10 µM
T2 sequence (whole entry): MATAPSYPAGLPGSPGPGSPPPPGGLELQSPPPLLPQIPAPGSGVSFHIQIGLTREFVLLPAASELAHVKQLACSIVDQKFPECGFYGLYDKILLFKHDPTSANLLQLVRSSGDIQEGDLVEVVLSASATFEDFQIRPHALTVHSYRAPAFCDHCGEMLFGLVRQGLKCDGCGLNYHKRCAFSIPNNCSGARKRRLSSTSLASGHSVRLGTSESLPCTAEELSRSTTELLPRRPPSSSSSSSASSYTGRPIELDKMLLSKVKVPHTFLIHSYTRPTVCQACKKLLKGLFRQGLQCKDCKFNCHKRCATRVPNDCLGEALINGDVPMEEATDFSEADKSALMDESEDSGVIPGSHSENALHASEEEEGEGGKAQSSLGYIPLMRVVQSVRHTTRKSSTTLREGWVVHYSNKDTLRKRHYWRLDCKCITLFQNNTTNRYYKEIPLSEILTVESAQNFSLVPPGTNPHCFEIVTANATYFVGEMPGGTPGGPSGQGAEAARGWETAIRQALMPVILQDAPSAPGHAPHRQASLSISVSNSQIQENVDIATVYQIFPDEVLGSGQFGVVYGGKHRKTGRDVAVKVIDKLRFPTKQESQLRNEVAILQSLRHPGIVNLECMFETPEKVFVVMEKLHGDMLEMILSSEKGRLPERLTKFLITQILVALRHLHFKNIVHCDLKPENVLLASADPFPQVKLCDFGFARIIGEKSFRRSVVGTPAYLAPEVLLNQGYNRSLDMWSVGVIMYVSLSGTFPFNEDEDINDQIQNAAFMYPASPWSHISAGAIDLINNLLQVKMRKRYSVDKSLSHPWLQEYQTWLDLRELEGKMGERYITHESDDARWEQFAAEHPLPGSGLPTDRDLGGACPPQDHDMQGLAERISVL

[5] = biological target: T3, MAP/microtubule affinity-regulating kinase 4 (Homo sapiens) (UniProt Q96L34); experiment: Selectivity interaction (KinomeScan (DiscoverX)) EUB0001619a MARK4; conditions: at 1 µM
T3 sequence (whole entry): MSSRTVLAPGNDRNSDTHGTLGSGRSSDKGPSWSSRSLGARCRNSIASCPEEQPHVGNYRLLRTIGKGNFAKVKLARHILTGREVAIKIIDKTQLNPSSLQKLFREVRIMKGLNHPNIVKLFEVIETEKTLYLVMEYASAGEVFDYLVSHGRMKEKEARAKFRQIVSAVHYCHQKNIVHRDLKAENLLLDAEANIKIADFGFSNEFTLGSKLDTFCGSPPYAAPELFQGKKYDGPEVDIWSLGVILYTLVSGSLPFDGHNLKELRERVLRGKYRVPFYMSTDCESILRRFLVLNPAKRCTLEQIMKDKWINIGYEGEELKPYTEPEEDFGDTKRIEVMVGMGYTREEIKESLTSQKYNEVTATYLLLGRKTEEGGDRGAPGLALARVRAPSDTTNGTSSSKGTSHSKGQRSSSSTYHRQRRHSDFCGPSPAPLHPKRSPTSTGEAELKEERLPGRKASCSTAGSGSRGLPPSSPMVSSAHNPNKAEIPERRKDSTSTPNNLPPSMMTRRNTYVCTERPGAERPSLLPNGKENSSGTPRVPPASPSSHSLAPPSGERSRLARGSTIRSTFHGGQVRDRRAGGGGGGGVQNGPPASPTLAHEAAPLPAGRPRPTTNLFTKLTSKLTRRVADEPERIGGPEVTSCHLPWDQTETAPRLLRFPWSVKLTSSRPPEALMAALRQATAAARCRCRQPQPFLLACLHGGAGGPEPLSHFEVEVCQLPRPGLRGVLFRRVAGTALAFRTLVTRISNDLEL

[6] = biological target: T4, Interleukin-1 receptor-associated kinase 3 (Homo sapiens) (UniProt Q9Y616); experiment: Selectivity interaction (ActivX KiNativ screen (ex vivo kinase selectivity in human PBMCs)) EUB0001619a IRAK3; assay type: cell-based; conditions: PBMC, at 1 µM
T4 sequence (whole entry): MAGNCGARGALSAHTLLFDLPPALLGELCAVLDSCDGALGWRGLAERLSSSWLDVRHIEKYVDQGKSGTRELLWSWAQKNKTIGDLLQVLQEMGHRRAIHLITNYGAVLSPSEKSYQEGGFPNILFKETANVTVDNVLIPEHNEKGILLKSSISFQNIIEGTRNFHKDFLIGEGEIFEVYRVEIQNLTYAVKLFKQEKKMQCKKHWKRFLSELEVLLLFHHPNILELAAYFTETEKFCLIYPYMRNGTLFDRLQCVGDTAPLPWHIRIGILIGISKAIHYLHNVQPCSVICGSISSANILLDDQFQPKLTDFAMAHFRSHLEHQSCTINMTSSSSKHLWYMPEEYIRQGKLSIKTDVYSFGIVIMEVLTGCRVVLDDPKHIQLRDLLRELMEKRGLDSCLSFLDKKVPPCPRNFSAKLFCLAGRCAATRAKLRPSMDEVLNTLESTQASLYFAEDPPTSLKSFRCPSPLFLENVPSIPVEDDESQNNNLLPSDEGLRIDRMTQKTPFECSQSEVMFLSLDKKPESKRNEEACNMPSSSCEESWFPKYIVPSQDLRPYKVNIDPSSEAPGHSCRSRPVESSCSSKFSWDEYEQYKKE

[7] = biological target: SRSF protein kinase 3 (Homo sapiens) (UniProt Q9UPE1); experiment: Selectivity interaction (KinomeScan (DiscoverX)) EUB0000607a SRPK3; conditions: at 10 µM
SRSF protein kinase 3 (Homo sapiens), sequence (Q9UPE1 whole entry): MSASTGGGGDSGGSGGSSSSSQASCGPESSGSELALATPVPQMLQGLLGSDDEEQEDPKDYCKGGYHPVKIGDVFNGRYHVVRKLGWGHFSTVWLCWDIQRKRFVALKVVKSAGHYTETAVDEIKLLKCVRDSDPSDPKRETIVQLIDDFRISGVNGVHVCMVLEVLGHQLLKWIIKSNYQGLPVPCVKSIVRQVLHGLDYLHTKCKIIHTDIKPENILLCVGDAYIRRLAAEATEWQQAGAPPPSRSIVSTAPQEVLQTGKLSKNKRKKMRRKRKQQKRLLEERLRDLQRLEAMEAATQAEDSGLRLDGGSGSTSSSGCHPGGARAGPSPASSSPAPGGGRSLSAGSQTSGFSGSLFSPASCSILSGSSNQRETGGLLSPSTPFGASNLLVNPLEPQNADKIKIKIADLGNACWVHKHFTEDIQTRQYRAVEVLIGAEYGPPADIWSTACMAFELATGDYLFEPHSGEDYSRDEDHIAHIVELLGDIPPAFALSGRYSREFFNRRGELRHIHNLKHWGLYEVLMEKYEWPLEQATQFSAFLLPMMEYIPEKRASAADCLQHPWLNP

Calcium/calmodulin-dependent protein kinase kinase 1 (Homo sapiens), sequence (Q8N5S9 whole entry, looked up): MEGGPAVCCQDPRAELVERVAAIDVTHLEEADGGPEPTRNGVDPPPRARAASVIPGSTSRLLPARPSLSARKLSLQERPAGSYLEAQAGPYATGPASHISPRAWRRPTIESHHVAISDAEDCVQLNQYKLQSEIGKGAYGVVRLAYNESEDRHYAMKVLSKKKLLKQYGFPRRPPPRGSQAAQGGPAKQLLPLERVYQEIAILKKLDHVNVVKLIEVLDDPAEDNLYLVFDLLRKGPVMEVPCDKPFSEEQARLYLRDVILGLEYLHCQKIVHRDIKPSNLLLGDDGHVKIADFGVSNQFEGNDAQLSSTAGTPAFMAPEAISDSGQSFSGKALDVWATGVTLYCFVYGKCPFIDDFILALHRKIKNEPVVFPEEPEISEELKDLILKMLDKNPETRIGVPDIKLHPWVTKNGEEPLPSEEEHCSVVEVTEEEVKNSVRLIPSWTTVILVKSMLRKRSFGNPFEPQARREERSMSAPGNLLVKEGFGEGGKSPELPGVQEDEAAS

## Nc1cnc(N2CCc3cc(S(=O)(=O)Nc4c(F)cc(Cl)cc4F)cc(N4CCCC4=O)c32)nc1 [TP-020n]
[1]
  % of control: 100%

## CC(C)(O)[C@H](F)CN1Cc2cc(NC(=O)c3cnn4cccnc34)c(N3CCOCC3)cc2C1=O
[2]
  dTM: 1 K

## CC[C@@H]1[C@H](F)C(=O)N[C@@H]1COc1nccc2cc(C(N)=O)c(OC)cc12 [ZIMLOVISERTIB]
[3]
  % of inhibition: -1.3%

## Cc1cc([C@@H](C)Nc2ccccc2C(=O)O)c2nc(N3CCOCC3)cc(=O)n2c1 [AZD-6482]
[4]
  % of control: 100%

## N#Cc1cccc(-c2c[nH]c3ncnc(N4CCOCC4)c23)c1
[5]
  % of control: 82%
[6]
  % of inhibition: 34%

## CNC(=O)Nc1ccc(-c2nc(N3CC4CCC(C3)O4)c3cnn(C4CCC5(CC4)OCCO5)c3n2)cc1
[7]
  % of control: 100%
